Structures are written as SMILES.

One may read the LD50 as the dose expected to kill half of the subjects tested. A low value points to a more toxic substance.

Data set [1] relates to carrageenin edema of the rear paw of the rat. The experiment in a line: Retardation of the Carrageenin Edema of the rear paw of the rat. The settings on record: for ED25: po, rat, single administration, mean retardation of 25 % 3 and 5 hours after administration; for relative effect (Retardation of the Carrageenin Edema): relative to phenyl butazone (I) = 1.0. In kind it is in vivo. The method, then:
(§1) The antiinflammatory action of the standard preparation and the compounds of this invention, respectively, was determined
on the retarding inflammation at the carrageenin edema of the rear paw of the rat [Winter et al. Proc. Soc. exp. Biol. Med. 111 (1962) 544], wherein in table 2 those doses are shown which cause a mean retardation of 25 % 3 and 5 hours after single administration of the substance to be tested;
Background: Carrageenan injected into the paw causes an acute inflammation.

Data set [2] has as its system ultraviolet erythema of the skin on the back of the guinea pig. The experiment in a line: Retardation of the UV-Erythema (skin on the back of the guinea pig). The settings on record: for ED25: Cavia porcellus, light or radiation study, po, guinea pig, retardation of 25 % 5 hours after irradiation; for relative effect (Retardation of the UV-Erythema): relative to phenyl butazone (I) = 1,0. In kind it is in vivo. The procedure:
as §1
on the retardation at the ultraviolet erythema of the skin on the back of the guinea pig [Winder et al. Arch. int. Pharmacodyn. 116 (1958) 261], wherein in table 1 those doses are shown which cause a retardation of 25 % 5 hours after irradiation;

A short description of data set [3]: in vivo. The settings on record: mouse, po.
A short description of data set [4]: in vivo. The settings on record: rat, po.
Data set [5] has as its system granulation tissue formation (cotton granuloma) in rats. Put plainly: Retardation of the granulation tissue formation (cotton granuloma, chronic inflammation model). In kind it is in vivo, rat. The settings on record: for ED20: po, 168 h, 7 × p.o., rats, 20% inhibition, cotton granuloma; for relative effect (Retardation of the granulation tissue formation): relative to phenyl butazone (I) = 1.0. The procedure: as §1
on a chronic inflammation model (cotton granuloma) wherein the influence of the compounds on the granulation tissue formation after subcutaneous implantation of cotton plugs in rats was studied after daily administration on 7 following days in taking pattern from the method described by Winter et al. [J. Pharmacol. exp. Therap.

For the next data set, the system named is rats. The settings on record: 7 × p.o., 5 % of animals died within 10 days.

As to `O=C(O)Cc1c(-c2ccc(Cl)cc2)nn(-c2ccccc2)c1Cl` [II, 5-chloro-3-p-chlorophenyl-1-phenyl-pyrazole-4-acetic acid], in data set [1], the ED25 amounted to 1.5 mg/kg and the “relative effect (Retardation of the Carrageenin Edema)” value turned out to be 6.7. Also, in data set [2], the ED25 turned out to be 0.15 mg/kg and the “relative effect (Retardation of the UV-Erythema)” value was 6.7. Besides, in “in vivo [3]”, the LD50 at 240 h worked out at 530 mg/kg and the selectivity ratio amounted to 353. Further, in “in vivo [4]”, the selectivity ratio amounted to 6. Moreover, in data set [5], the ED20 was 3 mg/kg/day and the “relative effect (Retardation of the granulation tissue formation)” value was 33.3. In addition, the LD5 in the data set on rats is recorded as 18 mg/kg/die.

With `COc1ccc(-c2nn(-c3ccccc3)c(Cl)c2CC(=O)O)cc1` [IV, 5-chloro-3-p-methoxyphenyl-1-phenyl-pyrazole-4-acetic acid], in data set [1], the ED25 is 12 mg/kg and the “relative effect (Retardation of the Carrageenin Edema)” value is listed as 0.8. Further, in “in vivo [3]”, the LD50 at 240 h was 1100 mg/kg and the selectivity ratio was 91.7.

With `O=C(O)Cc1c(-c2ccccc2)nn(-c2ccccc2)c1Cl` [III, 5-chloro-1,3-diphenyl-pyrazole-4-acetic acid], in data set [1], the ED25 is 1 mg/kg and the “relative effect (Retardation of the Carrageenin Edema)” value was 10.0. Also, in data set [2], the ED25 was 0.25 mg/kg and the “relative effect (Retardation of the UV-Erythema)” value was determined as 4.0. Also, in “in vivo [3]”, the LD50 at 240 h came out at 1200 mg/kg and the selectivity ratio amounted to 1200. Besides, in the data set “in vivo [4]”, the selectivity ratio turned out to be 12.5. Besides, in data set [5], the ED20 turned out to be 8 mg/kg/day and the “relative effect (Retardation of the granulation tissue formation)” value is 12.5. The molecule also had an LD5 in the data set on rats of 100 mg/kg/die.

For `CCCCC1C(=O)N(c2ccccc2)N(c2ccccc2)C1=O` [I, phenyl butazone, reference compound], in data set [1], the ED25 was determined as 10 mg/kg and the “relative effect (Retardation of the Carrageenin Edema)” value came to 1.0. In data set [2], the ED25 worked out at 1 mg/kg and the “relative effect (Retardation of the UV-Erythema)” value was 1,0. Also, in data set [5], the ED20 was found to be 100 mg/kg/day and the “relative effect (Retardation of the granulation tissue formation)” value was 1.0.

For the origin of these results see patent US4042702A, “Halogen pyrazole derivatives, a method for producing these halogen pyrazole derivatives, medicaments containing and methods of using them” (Byk Gulden Lomberg Chemische Fabrik GmbH, priority 1973, dated 1977).
